According to the NIST ThermoML archive (doi:10.1016/j.jct.2011.06.019):

How the values were obtained:
[1] = molar heat capacity at constant pressure; conditions: Liquid, Flow calorimetry
[2] = molar heat capacity at constant pressure; xn = mol fraction of the nth substance listed; conditions: 313.15 K, Liquid, Flow calorimetry

CCO [ethanol]
molar heat capacity at constant pressure [J/K/mol], [1]
Conditions | 100 kPa | 5000 kPa | 10000 kPa | 15000 kPa | 20000 kPa
273.15 K | 103.5 | 103.1 | 102.1 | 101.7 | 100.7
293.15 K | 111.2 | 110.2 | 109 | 108.1 | 107.4
313.15 K | 119.2 | 118 | 116.8 | 115.5 | 114.9
333.15 K | 130 | 129.1 | 127.7 | 126 | 124.7

CCO [ethanol] + CCCCCCC
[2], x2 = 0
Conditions | molar heat capacity at constant pressure [J/K/mol]
100 kPa | 119.2
5000 kPa | 118
10000 kPa | 116.8
15000 kPa | 115.5
20000 kPa | 114.9

CCO [ethanol] + Cc1ccccc1
[2], x2 = 0
Conditions | molar heat capacity at constant pressure [J/K/mol]
100 kPa | 119.2
5000 kPa | 118
10000 kPa | 116.8
15000 kPa | 115.5
20000 kPa | 114.9

CCCCCCC [heptane]
molar heat capacity at constant pressure [J/K/mol], [1]
Conditions | 100 kPa | 5000 kPa | 10000 kPa | 15000 kPa | 20000 kPa
273.15 K | 216.2 | 213.1 | 210.9 | 208.1 | 207.2
293.15 K | 224.1 | 223 | 218.2 | 216.8 | 214.4
313.15 K | 233.8 | 230.3 | 226.2 | 223.1 | 221.6
333.15 K | 241.9 | 238.7 | 235 | 232 | 229.3

CCCCCCC [heptane] + CCO
molar heat capacity at constant pressure [J/K/mol], [2]
Conditions | x1 = 0.1 | x1 = 0.2001 | x1 = 0.3 | x1 = 0.4001 | x1 = 0.5001 | x1 = 0.6 | x1 = 0.6999 | x1 = 0.7999 | x1 = 0.9 | x1 = 1
100 kPa | 134.2 | 149.4 | 163.6 | 176.8 | 190.9 | 202.9 | 215.3 | 224.9 | 234.8 | 233.8
5000 kPa | 132.5 | 147.1 | 160.8 | 174.2 | 187.6 | 200 | 211.9 | 221.4 | 230.4 | 230.3
10000 kPa | 130.7 | 146.1 | 158.6 | 171.6 | 185 | 196.7 | 209 | 218.7 | 226.9 | 226.2
15000 kPa | 129.5 | 143.6 | 156.7 | 169.4 | 182.5 | 194.8 | 205.9 | 215.9 | 223.8 | 223.1
20000 kPa | 128.4 | 142.4 | 155.3 | 168.3 | 180.9 | 193.1 | 204 | 213.3 | 222.6 | 221.6

Cc1ccccc1 [toluene] + CCO
molar heat capacity at constant pressure [J/K/mol], [2]
Conditions | x1 = 0.1003 | x1 = 0.2007 | x1 = 0.2999 | x1 = 0.4002 | x1 = 0.5 | x1 = 0.6001 | x1 = 0.7 | x1 = 0.8 | x1 = 0.9001 | x1 = 1
100 kPa | 130.1 | 138.3 | 146.1 | 153.2 | 159.1 | 163.7 | 167.7 | 169.5 | 168.5 | 163.5
5000 kPa | 128.7 | 136.6 | 144.2 | 151.3 | 157.1 | 162 | 165.3 | 167.5 | 167.3 | 161.3
10000 kPa | 127.3 | 135.5 | 143.2 | 150 | 155.7 | 160.2 | 164.1 | 166.3 | 165.9 | 159.9
15000 kPa | 126.1 | 134.4 | 141.9 | 148.5 | 154.3 | 158.6 | 162.6 | 164.9 | 165.2 | 158.9
20000 kPa | 125.1 | 133.6 | 140.9 | 147.5 | 153.4 | 158.1 | 161.8 | 164 | 163.6 | 157.8
